# Patent publication US6821516B1, “Macrophages, process for preparing the same and their use as active substances of pharmaceutical compositions” (I.D.M. Immuno-Designed Molecules, priority 1993, dated 2004)
# Test system: U937 tumor cells
# Assay: In vitro antitumoral assay: inhibition of 3H-thymidine incorporation by U937 tumor cells, macrophage/U937 ratio 1/1
# Assay type: cell-based, human
# Details: mean and standard error of 8 preparations
# Method: The “cytotoxic activity” corresponds to the one measured as the percentage of inhibition of 3-H thymidine incorporation by target tumoral cells, particularly U937 cells, and a test for this measure is hereafter given:
# Differentiated macrophages were seeded into 96-well flat microtiter plates at 10^4 macrophages/well in 0.2 ml. After 2 h incubation at 37° C. in 5% CO2 humidified atmosphere, the medium was removed and replaced by IMDM+5% hu AB serum containing or not 250 U/ml of rhu IFNγ; plates were further incubated overnight. After washing, 10^4 U937 tumor cells in 0.2 ml fresh medium (IMDM+10% FCS) were added to each well. After 24 h contact, 0.1 μCi of tritiated thymidine was added to each well for a further 24 h incubation.
# The cells were collected and the determination of incorporated radioactivity on the fiber glass filters was carried out by β counting. The percentage inhibition of thymidine incorporation by tumor cells could be calculated according to the formula: [formula]
# The cytotoxic activity is determined with U937 cells, the ratio between macrophages and U937 being of 1/1. […]
# The cells were collected and the determination of incorporated radioactivity on the fiber glass filters was carried out by β counting. The % inhibition of thymidine incorporation by tumor cells was calculated according the formula: [formula]
substance,measurement,setting,value
+GM-CSF,cytotoxic activity +IFN-γ: % inhibition of 3H-thymidine incorporation by U937 cells,after activation with 250 U/ml IFN-γ,76 +/− 5%
same,cytotoxic activity −IFN-γ: % inhibition of 3H-thymidine incorporation by U937 cells,without IFN-γ activation (spontaneous),44 +/− 5%
